In data set [1] the test system is TNBS-induced colitis. Put plainly: Relapsing TNBS-induced colitis in mice, rectal niclosamide (Example 4). It is filed as in vivo, C57BL/6J female mice. The settings on record: relative to vehicle control. The text has this: Objective. […] Model. The TNBS-induced colitis is a commonly used experimental model for Inflammatory Bowel Disease (IBD). TNBS (trinitrobenzenesulfonic acid) is a chemical administered rectally in the form of an enema to mice or rats in combination with ethanol, which disrupts the mucous barrier, and induces colitis by […] proteins within the gut, causing them to become preferential targets for immune cells. The severity of TNBS-induced colitis depends largely on the dosage applied and the strain of animal used. In chronic, relapsing form of the model, animals are sensitized by escalating, intracolonic doses of TNBS. Disease is monitored in-life by weight loss. Histology of colon specimens is used to determine disease severity at study termination (Gastroenterology. 2003 December; 125(6). 1750-61; Inflamm Bowel Dis. 2006 October; 12(10):995-9.) Mouse strain and housing. C57BL/6J female mice (9-weeks old) are purchased by Jackson and are housed at a temperature ranging from 68 to 74° F. with a diurnal 12 hour light cycle in a specific pathogen-free facility in ventilated cages. Food and water is provided ad libitum. Animals are acclimated to local microbiota for 7 days before the beginning of the experiment. Cell isolation and culture procedures are as noted in Example 2. Conditioning to induce colitis. To perform the studies of relapsing hapten-induced colitis 4 escalating doses of TNBS in 50% ethanol are administered at weekly intervals to lightly anesthetized mice through a 3.5Fr catheter inserted into the rectum. The catheter tip is inserted 4 cm proximal to the anal verge, and 150 μL of fluid is slowly instilled into the colon, after which the mouse is held in a vertical position for 30 seconds per rectum at weekly intervals. […] For the clinical assessment of colitis, animal weight, diarrhea (0=absent; 1=present), rectal prolapse (0=absent; l=present) and presence of blood in the stool (0=absent; l=present) is recorded daily. […] For statistical comparisons, two-way Anova test with Bonferroni correction is calculated with […] software.

Data set [2] in a line: Colon concentration in mice compared with uncoupling concentration (Example 6). The class given is in vivo. As to the method:
Model. Results from Examples 2 and 5 are used together. […] This concentration is directly compared to the dose-response data to determine if efficacious exposure is sufficient to induce mitochondrial uncoupling in colon.
Pharmacokinetic study design.
Calculation of target coverage. The average area under the colon concentration versus time curve (AUC) and the peak concentration is calculated and is plotted and is graphed.

Data set [3] is described as follows: Pharmacokinetics following a single rectal administration to NZW rabbits (Example 11). The class given is in vivo, New Zealand White KBL Rabbit. Particulars: Treatment B 7.5, NZW rabbits; for concentration at 2 h / concentration at 4 h / concentration at 8 h / concentration at 24 h: male, New Zealand White KBL, rabbit, plasma, other: rectal, 7.5 mg, Niclosamide Plasma Concentrations. The text has this: Following dosing, blood samples and rectal mucosa was obtained at indicated time points.

Regarding `O=C(Nc1ccc([N+](=O)[O-])cc1Cl)c1cc(Cl)ccc1O` [Niclosamide, 5-chloro-N-(2-chloro-4-nitrophenyl)-2-hydroxybenzamide], the colitis clinical scores entry in data set [1] (daily, 1-100 mg/kg) was “dose-related decrease”. Besides, in data set [1] (daily, 1-100 mg/kg), the colitis histologic scores entry was “dose-related decrease”. In addition, the “doses that significantly reduce both clinical and histologic scores (p<0.05)” value in data set [1] is given as no less than 3 mg/kg. The “concentration in the colon” value in data set [2] (single rectal dose 1 mg/kg (below maximal efficacy)) is less than 5 µM. The same molecule showed a colon peak concentration in data set [2] (single rectal dose 3 mg/kg (therapeutic dosage)) greater than 5 µM. Further, the “Niclosamide Plasma Concentrations, Mean” value in data set [3] (1 h) was 3.9275 ng/mL. The concentration at 2 h amounted to 19.7 ng/mL in data set [3] (Mean, 2 h); 5.19 ng/mL in data set [3] (Subject 666, 2 h); 3.26 ng/mL in data set [3] (Subject 667, 2 h); 50.7 ng/mL in data set [3] (Subject 668, 2 h). Further, the concentration at 4 h in data set [3] (Mean, 4 h) was found to be 12 ng/mL; in data set [3] (Subject 668, 4 h) it was 2.21 ng/mL. Also, the concentration at 8 h in data set [3] (Mean, 8 h) is 4.68 ng/mL; in data set [3] (Subject 666, 8 h) it was 4.73 ng/mL; in data set [3] (Subject 667, 8 h) it was 4.63 ng/mL. For the same molecule, the concentration at 24 h in data set [3] (Mean, 24 h) amounted to 1.07 ng/mL; in data set [3] (Subject 667, 24 h), 1.07 ng/mL.

For the origin of these results see patent US10849867B2, “Methods and compositions for treating conditions associated with an abnormal inflammatory response” (First Wave Bio, Inc., priority 2015, dated 2020).
